Measurements: PubChem BioAssay (NCI)
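Five compound concentrations were applied to cells in 96-well plates for 48 hours; endpoints were derived by simple linear interpolation of the resulting dose-response curve. The concentration for full growth arrest is given as TGI.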

Experiments:
Assay in all cases: NCI anticancer screen, dose series, 48 h
A549 NSCLC = test system: A549 NSCLC
CCRF-CEM leukemia = test system: CCRF-CEM leukemia
EKVX NSCLC = test system: EKVX NSCLC
HCT-15 colon = test system: HCT-15 colon
HL-60(TB) leukemia = test system: HL-60(TB) leukemia
HOP-62 NSCLC = test system: HOP-62 NSCLC
HOP-92 NSCLC = test system: HOP-92 NSCLC
IGROV1 ovarian = test system: IGROV1 ovarian
KM12 colon = test system: KM12 colon
M14 melanoma = test system: M14 melanoma
MCF7 breast = test system: MCF7 breast
OVCAR-3 ovarian = test system: OVCAR-3 ovarian
SF-268 CNS = test system: SF-268 CNS
SF-295 CNS = test system: SF-295 CNS
SN12C renal = test system: SN12C renal
SNB-75 CNS = test system: SNB-75 CNS
SR leukemia = test system: SR leukemia
SW-620 colon = test system: SW-620 colon
UACC-62 melanoma = test system: UACC-62 melanoma
UO-31 renal = test system: UO-31 renal

SMILES	TGI (A549 NSCLC) [µM]	TGI (CCRF-CEM leukemia) [µM]	TGI (EKVX NSCLC) [µM]	TGI (HCT-15 colon) [µM]	TGI (HL-60(TB) leukemia) [µM]	TGI (HOP-62 NSCLC) [µM]	TGI (HOP-92 NSCLC) [µM]	TGI (IGROV1 ovarian) [µM]	TGI (KM12 colon) [µM]	TGI (M14 melanoma) [µM]	TGI (MCF7 breast) [µM]	TGI (OVCAR-3 ovarian) [µM]	TGI (SF-268 CNS) [µM]	TGI (SF-295 CNS) [µM]	TGI (SN12C renal) [µM]	TGI (SNB-75 CNS) [µM]	TGI (SR leukemia) [µM]	TGI (SW-620 colon) [µM]	TGI (UACC-62 melanoma) [µM]	TGI (UO-31 renal) [µM]
CC(C)(C)C(=O)Oc1ccc(/C=C/C(=O)c2ccc(OC(=O)C(C)(C)C)cc2)cc1	> 100	20.2	> 100	> 100	75.5	> 100	> 100	> 100	38.5	> 100	> 100	72	> 100	> 100	> 100	> 100	76.4	> 100	> 100	–
CC[C@@H](CCCCC1CC[C@H]2CC(=O)C[C@@H]12)OC (stereo partly drawn)	> 100	> 100	> 100	> 100	> 100	> 100	> 100	> 100	> 100	> 100	> 100	> 100	> 100	> 100	> 100	> 100	> 100	> 100	> 100	–
COc1ccc(/C=C2/C(=O)N(C(=O)c3ccccc3O)N=C2C)cc1	> 100	> 100	> 100	1.24	9.87	–	> 100	0.0784	> 100	> 100	> 100	> 30.4	> 100	> 100	> 32	–	> 100	> 100	> 100	–
O=C1C[C@@]23CCC4(CC2CCC[C@H]3O1)OCCO4 (stereo partly drawn)	> 100	–	> 100	> 100	> 100	> 100	> 100	> 100	> 100	> 100	> 100	> 100	> 100	> 100	> 100	–	> 100	> 100	> 100	–
CC(=O)NC1(NC(C)=O)C2CC(C1Cc1ccccc1)C(C)(C)C2C (stereo not drawn)	> 100	> 100	> 100	–	> 100	> 100	> 100	> 100	> 100	> 100	> 100	> 100	> 100	> 100	> 100	> 100	> 100	> 100	> 100	> 100
COc1ccc2c(O)c(S(=O)(=O)c3ccc(C)cc3)c(=O)oc2c1OC	> 100	> 100	> 100	> 100	> 100	–	> 100	> 100	> 100	> 100	> 100	> 100	> 100	> 100	> 100	> 100	> 100	> 100	> 100	> 100
COc1ccc(-c2oc3cc(OC)c(OC)c(O)c3c(=O)c2OC)cc1	> 100	> 100	> 100	> 100	> 100	> 100	33.8	56.8	> 100	> 100	> 100	–	98.4	46.9	> 100	37.4	> 100	> 100	84.4	> 100
O=c1[nH]ncc2[nH]c3c4ccccc4ccc3c12	65.6	> 100	> 100	39.6	> 100	> 100	87.1	–	> 100	> 100	54.9	> 100	> 100	84.1	–	–	> 100	> 100	–	> 100
COc1cc(/C=N/N=C(\N)NO)cc(OC)c1OC	> 100	> 100	> 100	> 100	42.1	> 100	> 100	> 100	> 100	> 100	85.9	> 100	> 100	53.2	> 100	–	71.2	> 100	50.5	> 100
FC(F)(F)c1ccc2c(c1)nc1n2C(c2c(Cl)cccc2Cl)SC1 (stereo not drawn)	38.6	–	32.3	50.9	67.5	31	37	47.7	27.2	36.9	55.2	28.8	47.2	33.6	32.2	45.1	> 100	71.3	34.1	31.8
N=c1oc2ccccc2cc1-c1nc2ccccc2[nH]1	> 100	> 100	41.1	> 100	87	> 100	35.5	> 100	> 100	> 100	> 100	–	> 100	> 100	> 100	> 100	> 100	> 100	> 100	24.8
CCOC(=O)C(=CNc1ccc(N(C2=NCC(C)S2)c2ccc(F)c(Cl)c2)cc1)C(=O)OCC (stereo not drawn)	86.1	30.1	43.3	36.1	52.9	52	36.1	44.5	33.6	35.4	53.9	51.8	55.3	64.2	36.2	43.7	43.1	57.1	–	38.6
COC(=O)C1Cc2c(OC)ccc(OC)c2C(O)C1C(=O)OC (stereo not drawn)	> 100	> 100	> 100	–	> 100	> 100	> 100	> 100	> 100	> 100	> 100	> 100	> 100	> 100	> 100	> 100	> 100	> 100	> 100	> 100
O=C1CCCC/C1=C\c1ccc([N+](=O)[O-])cc1	95.9	30.4	> 100	–	> 100	29	52.1	32.1	38.4	40.8	37.4	83.5	> 100	51	30.9	46	> 100	–	30.7	36.3
CCOP(=O)(OCC)/C(C#N)=C/c1ccccn1	> 100	> 100	> 100	> 100	> 100	> 100	> 100	> 100	> 100	> 100	> 100	> 100	> 100	> 100	> 100	> 100	> 100	> 100	> 100	–
Cc1ccc(S(=O)(=O)CNC(=O)C(O)(O)C(F)(F)F)cc1	> 100	> 100	> 100	> 100	> 100	> 100	> 100	> 100	> 100	> 100	> 100	> 100	> 100	> 100	> 100	–	> 100	> 100	> 100	> 100
Nc1nccc(NCC2(CO)CC(OCc3ccccc3)C2)n1 (stereo not drawn)	> 100	> 100	> 100	> 100	> 100	> 100	> 100	> 100	> 100	–	> 100	> 100	–	> 100	> 100	> 100	> 100	> 100	> 100	> 100
O=C(/C=C1\Sc2ccccc2N=C1CC(=O)c1ccccc1)c1ccccc1	25.1	50	37.4	> 100	22.3	19.8	21.6	37.4	24.5	36.4	> 100	29.5	45.8	24.7	39.4	–	16	22.5	–	31.5
Cc1cccc2oc3c(c(=O)c12)CC(O)C(C)(C)O3 (stereo not drawn)	> 100	> 100	> 100	> 100	48.3	> 100	> 100	> 100	> 100	> 100	> 100	> 100	> 100	> 100	> 100	–	> 100	> 100	> 100	> 100
NC(=O)CSc1c2cc(O)ccc2nc2ccc(O)cc12	> 10	> 10	> 10	> 10	> 10	> 10	> 10	> 10	> 10	> 10	> 10	> 10	> 10	> 10	> 10	> 10	> 10	> 10	> 10	–
CC(=O)C(C)C(=O)N1C(=O)N(C)C2(C)N(C)C(=O)NC12C (stereo not drawn)	> 100	–	> 100	> 100	> 100	> 100	> 100	> 100	> 100	> 100	> 100	> 100	> 100	> 100	> 100	> 100	> 100	–	> 100	> 100
COc1cc(C(=O)Oc2c(C(C)=O)sc3c2c(=O)n(-c2ccccc2)c(=S)n3-c2ccccc2)cc(OC)c1OC	78.3	45.8	40.8	44.1	49.7	67.1	55.8	43.5	50.8	32.9	44.8	62.2	77.4	40.6	27.4	50.1	> 100	68.4	47.6	–
COc1ccc2cc(CNCCCCCCCCNCc3ccc4cc(OC)ccc4c3)ccc2c1	> 100	7.27	–	> 100	15.2	10.2	10	> 100	–	–	> 100	9.86	–	41.2	–	11.1	2.76	4.38	3.79	–
C1CCCCC2(CCCCCCCCC3(CCC1)SCCS3)SCCS2	> 100	–	> 100	> 100	> 100	> 100	> 100	> 100	> 100	> 100	> 100	> 100	> 100	> 100	> 100	> 100	> 100	> 100	> 100	–
COC1(C2c3ccccc3CCN2C(=O)OC(C)(C)C)C(=O)C(c2ccccc2)=C1N(C)C (stereo not drawn)	> 100	> 100	> 100	> 100	79.8	> 100	86.2	–	> 100	> 100	> 100	70.6	> 100	> 100	39.9	> 100	> 100	> 100	> 100	64.4
